From patent EP2822595B1, “SPHINGOSINE-1 -PHOSPHATE RECEPTORS MODULATORS FOR IMPROVING VACCINE IMMUNIZATION” (Istituto Superiore di Sanità, priority 2012, dated 2013)
Where two headings read alike, the source gives them in different places.

Columns and labels:
[1] = tested on: TT-specific antibody responses; assay type: in vivo, BALB/c mice; conditions: for titre of TT-specific IgA antibodies: one week after the recall dose, vs TT+CT without treatment
[2] = tested on: TT-specific antibody secreting cells (ASC); assay type: in vivo, BALB/c mice; conditions: bone marrow
[3] = tested on: antigen-specific CD4^+ and CD8^+ T lymphocytes; test: CFSE proliferation assay of TT-specific T lymphocytes after intranasal immunization; assay type: in vivo, BALB/c mice
[4] = tested on: Ova-specific CD4^+ and CD8^+ T lymphocytes; assay type: in vivo, BALB/c mice; conditions: 8 months after the fourth immunization, vs non treated
[5] = tested on: TT-specific antibody responses; assay type: in vivo, BALB/c mice; conditions: sera
[6] = tested on: antigen-specific CD4^+ and CD8^+ proliferating cells; test: CFSE proliferation assay of TT-specific T lymphocytes after systemic (intraperitoneal) immunization; assay type: in vivo, BALB/c mice; conditions: 4 months after the second intraperitoneal immunization, vs non treated, p < 0.05
[7] = tested on: TT-specific antibody responses; assay type: in vivo, BALB/c mice; conditions: FTY720 0.5 mg/Kg intragastric 48 and 24 hours before intranasal TT+CT
[8] = tested on: S1P receptors (S1P1, S1P3, S1P4 e S1P5); conditions: 4 of 5 S1P receptors (S1P1, S1P3, S1P4 e S1P5); cited from earlier work
[9] = tested on: patients affected by Multiple Sclerosis; conditions: cited from earlier work
[10] = serum, TT-specific, TT+CT intranasal plus FTY720 vs without, at different analyzed kinetic points
[11] = draining (mediastinal) lymph nodes, two weeks after the fourth immunization, vs immunized non treated mice, p < 0.05
[12] = draining lymph nodes, 8 months after the fourth immunization, one week after one recall dose, vs non treated, p < 0.05
[13] = spleen, 8 months after the fourth immunization, after one recall dose, vs non treated
[14] = spleen, two weeks after the fourth immunization, treated vs non treated
[15] = oral, 0.5 and 1.25 mg a day, phase III clinical trials

## CCCCCCCCc1ccc(CCC(N)(CO)CO)cc1.Cl [FTY720, 2-amino-2-(2-(4-octylphenyl)ethyl)propane-1,3-diol hydrochloride]
[1]; saliva
  titre of TT-specific IgA antibodies: higher titres
[1]; [10]
  titre of IgG1 subclass: Increase of the titre
  titre of IgG2a subclass: Increase of the titre
[1]; serum, four months after the fourth immunization (pre-boost), vs immunized mice without treatment
  anti-TT IgG antibody titre: maintained at higher levels
[1]; serum, one week after boost given four months after the fourth immunization, vs immunized mice without treatment
  IgG antibodies specific for the TT: higher levels
[1]; serum, one week after the fourth intranasal immunization, TT+CT plus FTY720 (761) vs TT+CT without treatment (304), apparently times over TT only
  anti-tetanus IgG antibody titre: 761
[1]; serum, one week after the second intranasal immunization with TT+CT, FTY720 0.5 mg/Kg intragastric the day after first and second immunization, TT+CT without treatment: 54 times
  anti-tetanus IgG antibody titre: 305 times with respect to the titre of mice which received only TT
[1]; serum, one week after the third intranasal immunization, TT+CT plus FTY720 vs TT+CT without treatment
  anti-tetanus IgG antibody titre: increase
[1]; vaginal washes (VW)
  titre of TT-specific IgA antibodies: higher titres
[2]; two weeks after the fourth immunization, immunized and not treated mice: 60
  number of anti-TT IgG ASC: 115 ASC/1×10^6 of cells
[2]; two weeks after the fourth immunization, non treated: 40
  number of anti-TT IgA ASC: 80 ASC/1×10^6 of cells
[2]; two weeks after the recall dose (4 months after fourth immunization), non treated: 123
  number of anti-TT IgG ASC: 240 ASC/1×10^6 of cells
[2]; two weeks after the recall dose, non treated: 58
  number of anti-TT IgA ASC: 136 ASC/1×10^6 of cells
[3]; [11]
  proliferation of antigen-specific CD4^+ T lymphocytes: significantly higher
  proliferation of antigen-specific CD8^+ T lymphocytes: significantly higher
[3]; [12]
  proliferation of antigen-specific CD4^+ T lymphocytes: higher
  proliferation of antigen-specific CD8^+ T lymphocytes: higher
[3]; [13]
  percentage of antigen-specific CD4^+ T lymphocytes: higher percentage
  percentage of antigen-specific CD8^+ T lymphocytes: higher percentage
[3]; [14]
  proliferation of antigen-specific CD4^+ T lymphocytes: comparable
  proliferation of antigen-specific CD8^+ T lymphocytes: comparable
[4]; draining lymph nodes
  percentage of Ova-specific CD4^+ T lymphocytes: higher percentage
  percentage of Ova-specific CD8^+ T lymphocytes: higher percentage
[4]; spleen
  percentage of Ova-specific CD4^+ T lymphocytes: higher percentage
  percentage of Ova-specific CD8^+ T lymphocytes: higher percentage
[5]; one month after the second intraperitoneal immunization, treated vs non treated, differences decreased
  titre of anti-tetanus IgG antibodies, differences between the two groups: still detectable
[5]; one week after the first intraperitoneal immunization with TT+CT, FTY720 0.5 mg/Kg intragastrically the day after immunization, TT+CT without treatment: 63 times
  titre of anti-tetanus IgG antibodies: 203 times with respect to the titre of mice immunized only with TT
[5]; one week after the second intraperitoneal immunization, TT+CT plus FTY720 (575) vs TT+CT without treatment (152), apparently times over TT only
  titre of anti-tetanus IgG antibodies: 575
[6]; lymph nodes
  percentage of antigen-specific CD4^+ proliferating cells: higher percentage
  percentage of antigen-specific CD8^+ proliferating cells: higher percentage
[6]; spleen
  percentage of antigen-specific CD4^+ proliferating cells: higher percentage
  percentage of antigen-specific CD8^+ proliferating cells: higher percentage
[7]; one week after the second immunization, data not showed
  titre of anti-tetanus IgG antibodies: only the titre of anti-tetanus IgG antibodies in mice immunized with TT and CT was appreciable
[7]; one week after the third immunization
  titre of IgG antibody specific for the TT: higher in mice immunized with TT and CT in the absence of treatment
[8]
  agonist activity at S1P receptors: strong agonist
[9]; mainly in patients who received the higher dose (1.25 mg a day)
  infectious complications: some infectious complications
[9]; [15]
  effectiveness in Multiple Sclerosis patients: effective
  tolerability in Multiple Sclerosis patients: well tolerated
